The record followed here is ChEMBL document CHEMBL5032533, “Design, synthesis and anti-TNBC activity of Azeliragon triazole analogues” (Bioorg Med Chem Lett, 2021).

The subject of the test is SUM149PT. The experiment in a line: Cytotoxicity against human triple negative SUM149PT cells assessed as cell viability measured by MTS assay. Format: functional, cell-based. For orientation: Tetrazolium assays rely on reduction of a dye to a coloured formazan, in cell work by metabolically active cells.
On to `CCCCc1nc(-c2ccc(OCCCN(CC)CC)cc2)nn1-c1ccc(-c2ccc(C(=O)OCC)cc2)cc1`, for which the IC50 – broadly, the concentration needed to halve the response being measured – came to 328 nM. Next, `CCCCc1nc(-c2ccc(OCCCN(CC)CC)cc2)nn1-c1ccc(-c2ccc(Cl)cc2)cc1`: 220 nM; `CCCCc1nc(-c2ccc(OCCCN(CC)CC)cc2)nn1-c1ccc(-c2ccc(OC(F)(F)F)cc2)cc1`: 664 nM. For the molecule `CCCCc1nc(-c2ccc(OCCCN(CC)CC)cc2)nn1-c1ccc(-c2ccc(C)cc2)cc1`, the IC50 was determined as 267 nM.

`CCCCc1nc(-c2ccc(OCCCN(CC)CC)cc2)nn1-c1ccc(-c2ccc(C#N)cc2)cc1`: the IC50 turned out to be 5430 nM. Next, `CCCCc1nc(-c2ccc(OCCCN(CC)CC)cc2)nn1-c1ccc(Oc2ccc(Cl)cc2)cc1`: 6300 nM. As to `CCCCOc1ccc(-c2nc(CCCC)n(-c3ccc(Oc4ccc(Cl)cc4)cc3)n2)cc1`, the IC50 amounted to 16000 nM. For `CCCCc1nc(-c2ccc(OCCCN(CC)CC)cc2)nn1-c1ccc(Oc2ccccc2)cc1`, the IC50 was found to be 538 nM.

On to `CCCCc1nc(-c2ccc(OCCOCC)cc2)nn1-c1ccc(Oc2ccc(Cl)cc2)cc1`, for which the 50% inhibitory concentration (IC50) was determined as 18600 nM. Turning to `CCCCc1nc(-c2ccc(OCCCN(CC)CC)cc2)nn1-c1ccc(-c2ccnn2C)cc1`, the IC50 is 665 nM. In the case of `CCCCc1nc(-c2ccc(OCCCN(CC)CC)cc2)nn1-c1ccc(-c2ccc(OC)cc2)cc1` it was 588 nM; in that of `CCN(CC)CCCOc1ccc(-c2nc(CCOC)n(-c3ccc(Oc4ccc(Cl)cc4)cc3)n2)cc1`, 12500 nM. With `CCCCc1nc(-c2ccc(OCCC)cc2)nn1-c1ccc(Oc2ccccc2)cc1`, the concentration for half-maximal inhibition (IC50) is 13700 nM.

`CCCCc1nc(-c2ccc(OCCN3CCCCC3)cc2)nn1-c1ccc(Oc2ccc(Cl)cc2)cc1`: the IC50 came out at 5680 nM. For the molecule `CCCCc1nc(-c2ccc(OCCCN(CC)CC)cc2)nn1-c1ccc(-c2ccc(OC)cc2OC)cc1`, the IC50 was found to be 487 nM. `CCCCc1nc(-c2ccc(OCCCN(CC)CC)cc2)cn1-c1ccc(Oc2ccc(Cl)cc2)cc1` [AZELIRAGON]: the half-maximal inhibitory concentration (IC50) worked out at 5290 nM.
